Test system: Escherichia coli ATCC 25922
Test: 50% growth inhibitory concentration (IC50) determination, Iso-Sensitest broth dilution
Type: cell-based
Conditions: Escherichia coli, ATCC25922, 16 h, strain Escherichia coli ATCC 25922; 10-point broth dilution, optical density at 600 nm over 16 h; read-out: Escherichia coli growth inhibition IC50
In short: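 10-point twofold Iso-Sensitest broth dilution (e.g. 50 to 0.097 μM final) with DMSO stocks, incubated at 35±2° C. Growth followed by OD 600 nm every 20 min over 16 h; IC50 derived from growth inhibition during logarithmic phase.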

## N#Cc1cccc2c1CC(CNCCC1CN(c3cnc4c(n3)NC(=O)CO4)C(=O)O1)C2 (centres unmarked) [Example 35, 2-[[2-[2-oxo-3-(3-oxo-4H-pyrazino[2,3-b][1,4]oxazin-6-yl)-1,3-oxazolidin-5-yl]ethylamino]methyl]-2,3-dihydro-1H-indene-4-carbonitrile]
  IC50: < 97.7 nM

## Cc1ncc(F)c2c1CC(CNCCC1CN(c3ccc4c(n3)NC(=O)CO4)C(=O)O1)C2 (centres unmarked) [Example 36, 6-[5-[2-[(4-fluoro-1-methyl-6,7-dihydro-5H-cyclopenta[c]pyridin-6-yl)methylamino]ethyl]-2-oxo-1,3-oxazolidin-3-yl]-4H-pyrido[3,2-b][1,4]oxazin-3-one]
  IC50: < 97.7 nM

## N#Cc1ncc(F)c2c1CC(CNCCC1CN(c3ccc4c(n3)NC(=O)CO4)C(=O)O1)C2 (centres unmarked) [Example 37, 4-fluoro-6-[[2-[2-oxo-3-(3-oxo-4H-pyrido[3,2-b][1,4]oxazin-6-yl)-1,3-oxazolidin-5-yl]ethylamino]methyl]-6,7-dihydro-5H-cyclopenta[c]pyridine-1-carbonitrile; formic acid]
  IC50: < 97.7 nM

## O=C1COc2ncc(N3CC(CCNCC4Cc5ccnc(Cl)c5C4)OC3=O)nc2N1 (centres unmarked) [Example 38, 6-[5-[2-[(1-chloro-6,7-dihydro-5H-cyclopenta[c]pyridin-6-yl)methylamino]ethyl]-2-oxo-1,3-oxazolidin-3-yl]-4H-pyrazino[2,3-b][1,4]oxazin-3-one]
  IC50: < 97.7 nM

## N#Cc1cccc2c1CC(CNCCc1nn(-c3ccc4c(c3)NC(=O)CO4)c(=O)o1)C2 (centres unmarked) [Example 42, 2-[[2-[5-oxo-4-(3-oxo-4H-1,4-benzoxazin-6-yl)-1,3,4-oxadiazol-2-yl]ethylamino]methyl]-2,3-dihydro-1H-indene-4-carbonitrile; formic acid]
  IC50: 158 nM

## N#Cc1cccc2c1CC(CNCCC1CN(c3cnc4c(c3)NC(=O)CO4)C(=O)O1)C2 (centres unmarked) [Example 46, 2-[[2-[2-oxo-3-(2-oxo-1H-pyrido[2,3-b][1,4]oxazin-7-yl)-1,3-oxazolidin-5-yl]ethylamino]methyl]-2,3-dihydro-1H-indene-4-carbonitrile]
  IC50: 356 nM

## Cc1ncc(C#N)c2c1CC(CNCCC1CN(c3ccc4c(n3)NC(=O)CO4)C(=O)O1)C2 (centres unmarked) [Example 47, 1-methyl-6-[[2-[2-oxo-3-(3-oxo-4H-pyrido[3,2-b][1,4]oxazin-6-yl)-1,3-oxazolidin-5-yl]ethylamino]methyl]-6,7-dihydro-5H-cyclopenta[c]pyridine-4-carbonitrile; formic acid]
  IC50: < 97.7 nM

## CNC(=O)COc1ccc2c(c1C#N)CC(CNCCC1CN(c3ccc4c(n3)NC(=O)CO4)C(=O)O1)C2 (centres unmarked) [Example 48, 2-[[4-cyano-2-[[2-[2-oxo-3-(3-oxo-4H-pyrido[3,2-b][1,4]oxazin-6-yl)-1,3-oxazolidin-5-yl]ethylamino]methyl]-2,3-dihydro-1H-inden-5-yl]oxy]-N-methylacetamide]
  IC50: 106 nM

## COc1cc2c(c(Cl)n1)CC(CNCCC1CN(c3ccc4c(n3)NC(=O)CO4)C(=O)O1)C2 (centres unmarked) [Example 49, 6-[5-[2-[(1-chloro-3-methoxy-6,7-dihydro-5H-cyclopenta[c]pyridin-6-yl)methylamino]ethyl]-2-oxo-1,3-oxazolidin-3-yl]-4H-pyrido[3,2-b][1,4]oxazin-3-one]
  IC50: 193 nM

## COc1cc2c(c(Cl)n1)CC(CNCCC1CN(c3cnc4c(n3)NC(=O)CO4)C(=O)O1)C2 (centres unmarked) [Example 50, 6-[5-[2-[(1-chloro-3-methoxy-6,7-dihydro-5H-cyclopenta[c]pyridin-6-yl)methylamino]ethyl]-2-oxo-1,3-oxazolidin-3-yl]-4H-pyrazino[2,3-b][1,4]oxazin-3-one]
  IC50: < 97.7 nM

## Cc1ncc(F)c2c1CC(CNCCC1CN(c3cnc4c(n3)NC(=O)CO4)C(=O)O1)C2 (centres unmarked) [Example 51, 6-[5-[2-[(4-fluoro-1-methyl-6,7-dihydro-5H-cyclopenta[c]pyridin-6-yl)methylamino]ethyl]-2-oxo-1,3-oxazolidin-3-yl]-4H-pyrazino[2,3-b][1,4]oxazin-3-one]
  IC50: < 97.7 nM
